Experimental data: patent US8846601B2, “Melanocortin receptor-specific peptides” (Palatin Technologies, Inc., priority 2009, dated 2014)
Like-named read-outs stand apart in the source and are kept apart here. Peptide text beside a SMILES is read from it.

Legend:
[1] = biological target: MC1-R (B-16 mouse melanoma cells) (Mus musculus (Mouse), UniProt Q01727); test: Competitive binding using Eu-labeled NDP-α-MSH, MC1-R
Experimental: A competitive inhibition binding assay is performed using membrane homogenates prepared from HEK-293 cells that express recombinant hMC4-R, hMC3-R, or hMC5-R, and from B-16 mouse melanoma cells (containing endogenous MC1-R). In some instances, HEK-293 cells that express recombinant hMC1-R were employed. In the examples that follow, all MC3-R, MC4-R and MC5-R values are for human recombinant receptors. MC1-R values are for B-16 mouse melanoma cells, unless the heading is “hMC1-R”, in which case the value is for human recombinant MC1-R. Assays were performed in 96 well GF/B Millipore multiscreen filtration plates (MAFB NOB10) pre-coated with 0.5% bovine serum albumin (Fraction V). Membrane homogenates were incubated with 0.2 nM (for hMC4-R) 0.4 nM (for MC3-R and MC5-R) or 0.1 nM (for mouse B16 MC1-R or hMC1-R) [I^125]-NDP-α-MSH (Perkin Elmer) and increasing concentrations of test peptides of the present invention in buffer containing 25 mM HEPES buffer (pH 7.5) with 100 mM NaCl, 2 mM CaCl2, 2 mM MgCl2, 0.3 mM 1,10-phenanthroline, and 0.2% bovine serum albumin. After incubation for 60 minutes at 37° C., the assay mixture was filtered and the membranes washed three times with ice-cold buffer. Filters were dried and counted in a gamma counter for bound radioactivity. […] Maximal specific binding (100%) was defined as the difference in radioactivity (cpm) bound to cell membranes in the absence and presence of 1 μM NDP-α-MSH. […] Ki values for test peptides of the present invention were determined using Graph-Pad Prism® curve-fitting software.
Alternatively, a competitive inhibition binding assay was performed employing Eu-NDP-α-MSH (PerkinElmer Life Sciences catalog No. AD0225) with determination by time-resolved fluorometry (TRF) of the lanthanide chelate. […] The plates were incubated on a shaker for 15 minutes and read at 340 nm excitation and 615 nm emission wavelengths. […] Ki values were determined by curve-fitting with Graph-Pad Prism® software using a one-site fixed-slope competition binding model.

Male Sprague-Dawley rats = test: Rat feeding studies: food intake and body weight change; assay type: in vivo; conditions: for decrease in food consumption compared to control: rats
Experimental: Change in food intake and body weight was evaluated for selected peptides administered by intravenous (IV) or subcutaneous injection routes. Male Sprague-Dawley rats were obtained from Hilltop Lab Animals, Inc. (Scottsdale, Pa.) or other vendors. Animals were individually housed in conventional polystyrene hanging cages and maintained on a controlled 12 hour on/off light cycle. Water and pelleted food was provided ad libitum. The rats were dosed IV with vehicle or selected peptides (0.3 to 1.0 mg/kg), or dosed subcutaneously with vehicle or selected peptides (doses up to 30 mg/kg). […] The changes in body weight and food intake for the 48 hour and 72 hour periods after dosing can also be measured to determine reversal of changes in body weight and food intake effects back to baseline levels.

hMC3-R = hMC3-R (Homo sapiens (Human), UniProt P41968); test: Competitive binding using Eu-labeled NDP-α-MSH, MC3-R
Sequence of hMC3-R (P41968 whole entry): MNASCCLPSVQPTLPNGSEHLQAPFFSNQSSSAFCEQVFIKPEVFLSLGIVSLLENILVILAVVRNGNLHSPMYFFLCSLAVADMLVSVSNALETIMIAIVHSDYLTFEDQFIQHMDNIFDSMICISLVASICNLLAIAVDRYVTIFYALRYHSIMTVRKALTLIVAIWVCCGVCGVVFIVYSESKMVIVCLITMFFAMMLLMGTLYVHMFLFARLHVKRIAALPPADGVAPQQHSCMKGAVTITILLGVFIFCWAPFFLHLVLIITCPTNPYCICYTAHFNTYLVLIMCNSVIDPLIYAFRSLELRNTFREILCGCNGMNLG
Experimental: A competitive inhibition binding assay is performed using membrane homogenates prepared from HEK-293 cells that express recombinant hMC4-R, hMC3-R, or hMC5-R, and from B-16 mouse melanoma cells (containing endogenous MC1-R). In some instances, HEK-293 cells that express recombinant hMC1-R were employed. In the examples that follow, all MC3-R, MC4-R and MC5-R values are for human recombinant receptors. MC1-R values are for B-16 mouse melanoma cells, unless the heading is “hMC1-R”, in which case the value is for human recombinant MC1-R. Assays were performed in 96 well GF/B Millipore multiscreen filtration plates (MAFB NOB10) pre-coated with 0.5% bovine serum albumin (Fraction V). […] Filters were dried and counted in a gamma counter for bound radioactivity. […] Maximal specific binding (100%) was defined as the difference in radioactivity (cpm) bound to cell membranes in the absence and presence of 1 μM NDP-α-MSH. […] Ki values for test peptides of the present invention were determined using Graph-Pad Prism® curve-fitting software.
Alternatively, a competitive inhibition binding assay was performed employing Eu-NDP-α-MSH (PerkinElmer Life Sciences catalog No. AD0225) with determination by time-resolved fluorometry (TRF) of the lanthanide chelate. […] The plates were incubated on a shaker for 15 minutes and read at 340 nm excitation and 615 nm emission wavelengths. […]

hMC4-R [2] = biological target: T1, hMC4-R (Homo sapiens (Human), UniProt P32245); test: Assay for agonist activity: cAMP accumulation in HEK-293 cells that express hMC4-R; conditions: for functional status at MC4-R (agonist / partial agonist): agonist = intrinsic activity 70% or higher, partial agonist 10-70%
T1 sequence (P32245 whole entry): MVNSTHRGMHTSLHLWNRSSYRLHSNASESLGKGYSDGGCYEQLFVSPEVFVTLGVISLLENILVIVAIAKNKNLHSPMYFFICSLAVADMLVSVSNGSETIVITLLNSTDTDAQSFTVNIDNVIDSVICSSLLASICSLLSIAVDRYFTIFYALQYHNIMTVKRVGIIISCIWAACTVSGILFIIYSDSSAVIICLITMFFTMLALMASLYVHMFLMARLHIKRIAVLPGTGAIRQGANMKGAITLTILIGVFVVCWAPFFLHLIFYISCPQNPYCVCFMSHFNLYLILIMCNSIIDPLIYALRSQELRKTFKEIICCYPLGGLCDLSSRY
Experimental: By “intrinsic activity” is meant the maximal functional activity achievable by a compound in a specified melanocortin receptor expressing cell system, such as the maximal stimulation of adenylyl cyclase.
Accumulation of intracellular cAMP was examined as a measure of the ability of the peptides of the present invention to elicit a functional response in HEK-293 cells that express MC4-R. Confluent HEK-293 cells that express recombinant hMC4-R were detached from culture plates by incubation in enzyme-free cell dissociation buffer. Dispersed cells were suspended in Earle's Balanced Salt Solution containing 10 mM HEPES (pH 7.5), 1 mM MgCl2, 1 mM glutamine, 0.5% albumin and 0.3 mM 3-isobutyl-1-methyl-xanthine (IBMX), a phosphodiesterase inhibitor. […] Cells were exposed for 15 minutes at 37° C. to peptides of the present invention dissolved in DMSO (final DMSO concentration of 1%) at a concentration range of 0.05-5000 nM in a total assay volume of 200 μL. […] Data analysis was performed by nonlinear regression analysis with Graph-Pad Prism® software. The maximum efficacies of the test peptides of the present invention were compared to that achieved by the reference melanocortin agonist NDP-αMSH.

hMC4-R [3] = biological target: T1, hMC4-R; test: Competitive binding assay using Eu-NDP-α-MSH (TRF), hMC4-R membranes; conditions: averaged; Eu-NDP-α-MSH (values marked *); read-out: MC4-R Ki
Experimental: Alternatively, a competitive inhibition binding assay was performed employing Eu-NDP-α-MSH (PerkinElmer Life Sciences catalog No. AD0225) with determination by time-resolved fluorometry (TRF) of the lanthanide chelate. […] After incubation for 90 minutes at 37° C., the reaction was stopped by filtration over AcroWell 96-well filter plates (Pall Life Sciences). The filter plates were washed 4 times with 200 μL of ice-cold phosphate-buffered saline. DELFIA Enhancement solution (PerkinElmer Life Sciences) was added to each well. […] Each assay was conducted in duplicate and mean values were utilized. Ki values were determined by curve-fitting with Graph-Pad Prism® software using a one-site fixed-slope competition binding model.

hMC1-R [4] = biological target: T2, hMC1-R (Homo sapiens (Human), UniProt Q01726); test: Functional assay (EC50 and intrinsic activity) at hMC1-R; assay type: cell-based
T2 sequence (Q01726 whole entry): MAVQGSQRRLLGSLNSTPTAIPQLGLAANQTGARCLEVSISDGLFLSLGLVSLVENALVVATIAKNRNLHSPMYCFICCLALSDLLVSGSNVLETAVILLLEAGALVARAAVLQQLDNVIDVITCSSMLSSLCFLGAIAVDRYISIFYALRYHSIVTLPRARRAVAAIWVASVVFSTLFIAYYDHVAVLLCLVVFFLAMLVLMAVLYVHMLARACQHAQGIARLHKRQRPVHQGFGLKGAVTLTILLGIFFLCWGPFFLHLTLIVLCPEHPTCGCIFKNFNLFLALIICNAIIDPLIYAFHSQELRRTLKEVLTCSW

hMC1-R [5] = biological target: T2, hMC1-R; test: Competitive inhibition binding assay, human recombinant MC1-R
Experimental: A competitive inhibition binding assay is performed using membrane homogenates prepared from HEK-293 cells that express recombinant hMC4-R, hMC3-R, or hMC5-R, and from B-16 mouse melanoma cells (containing endogenous MC1-R). In some instances, HEK-293 cells that express recombinant hMC1-R were employed. In the examples that follow, all MC3-R, MC4-R and MC5-R values are for human recombinant receptors. […] Membrane homogenates were incubated with 0.2 nM (for hMC4-R) 0.4 nM (for MC3-R and MC5-R) or 0.1 nM (for mouse B16 MC1-R or hMC1-R) [I^125]-NDP-α-MSH (Perkin Elmer) and increasing concentrations of test peptides of the present invention in buffer containing 25 mM HEPES buffer (pH 7.5) with 100 mM NaCl, 2 mM CaCl2, 2 mM MgCl2, 0.3 mM 1,10-phenanthroline, and 0.2% bovine serum albumin. After incubation for 60 minutes at 37° C., the assay mixture was filtered and the membranes washed three times with ice-cold buffer. Filters were dried and counted in a gamma counter for bound radioactivity. […] Maximal specific binding (100%) was defined as the difference in radioactivity (cpm) bound to cell membranes in the absence and presence of 1 μM NDP-α-MSH. […] Each assay was conducted in triplicate and the actual mean values are described, with results less than 0% reported as 0%. Ki values for test peptides of the present invention were determined using Graph-Pad Prism® curve-fitting software.

hMC4-R [6] = biological target: T1, hMC4-R; test: Competitive inhibition binding assay using [I125]-NDP-α-MSH, hMC4-R membranes
Summary of the method: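 Membranes from HEK-293 cells expressing recombinant hMC1-R or hMC4-R incubated with 0.1 nM (MC1-R) or 0.2 nM (MC4-R) [I125]-NDP-α-MSH and increasing peptide concentrations in HEPES pH 7.5, 60 min at 37 °C; filtered, gamma counted.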

[7] = averaged, [I125]-NDP-α-MSH (values not marked *), read-out: MC4-R Ki

Sequence of MC1-R (B-16 mouse melanoma cells) (Q01727 whole entry): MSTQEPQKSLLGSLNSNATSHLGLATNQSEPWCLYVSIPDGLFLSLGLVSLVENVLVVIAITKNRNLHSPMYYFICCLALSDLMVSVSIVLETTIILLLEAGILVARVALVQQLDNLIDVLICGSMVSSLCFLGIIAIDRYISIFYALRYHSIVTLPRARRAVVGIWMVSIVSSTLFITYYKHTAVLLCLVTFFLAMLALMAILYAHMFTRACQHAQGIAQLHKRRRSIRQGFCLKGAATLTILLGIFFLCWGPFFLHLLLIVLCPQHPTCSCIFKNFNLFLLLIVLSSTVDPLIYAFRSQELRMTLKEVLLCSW

functional status at MC4-R (agonist / partial agonist) (hMC4-R [2]) | EC50 (hMC4-R [2]) [nM] | Ki (hMC4-R [3]) [nM] | EC50 (hMC1-R [4]) [nM] | Ki (hMC1-R [5]) [nM] | Ki (hMC4-R [6]; [7]) [nM] | Ki (hMC4-R [6]; read-out: hMC4-R (Ki)) [nM] | Compound | also measured
 | 0.245 |  |  | 295 | 8 | 8 | CC(=O)N[C@@H](CCCNC(=N)N)C(=O)N[C@H]1CCCC(=O)NCC[C@@H](C(N)=O)NC(=O)[C@H](Cc2c[nH]c3ccccc23)NC(=O)[C@H](CCCNC(=N)N)NC(=O)[C@@H](Cc2ccccc2)NC(=O)[C@H](CC(N)=O)NC1=O [compound 160, Ac-Arg-cyclo(hGlu-Asn- D-Phe-Arg-Trp-Dab)- NH2] (HELM PEPTIDE1{[ac].R.[O=C([C@H](CCCC(=O)[*:3])N[*:1])[*:2]].N.[dF].R.W.[Dab].[am]}$PEPTIDE1,PEPTIDE1,3:R3-8:R3$$$V2.0) | 
 |  |  | 13 | 155 |  |  | CC(=O)N[C@@H](CCCNC(=N)N)C(=O)N[C@H]1CCC(=O)NCCC[C@@H](C(N)=O)NC(=O)[C@H](Cc2c[nH]c3ccccc23)NC(=O)[C@H](CCCNC(=N)N)NC(=O)[C@@H](Cc2ccccc2)NC(=O)[C@H](CC(N)=O)NC1=O [compound 161, Ac-Arg-cyclo(Glu-Asn- D-Phe-Arg-Trp-Orn)- NH2] | EC50 (hMC4-R [2]; read-out: hMC4-R EC50): 0.413 nM
 | 0.85 |  | 22 | 255 | 5 | 5 | CC(=O)N[C@@H](CCCNC(=N)N)C(=O)N[C@H]1CCCCNC(=O)C[C@@H](C(N)=O)NC(=O)[C@H](Cc2ccc3ccccc3c2)NC(=O)[C@H](CCCNC(=N)N)NC(=O)[C@@H](Cc2ccccc2)NC(=O)[C@H](CC(N)=O)NC1=O [compound 162, Ac-Arg-cyclo(Lys-Asn- D-Phe-Arg-Nal 2-Asp)- NH2] (HELM PEPTIDE1{[ac].R.K.N.[dF].R.[O=C([C@H](Cc1ccc2ccccc2c1)N[*:1])[*:2]].D.[am]}$PEPTIDE1,PEPTIDE1,3:R3-8:R3$$$V2.0) | 

More lines, now with the values behind:

Compound | functional status at MC4-R (agonist / partial agonist) (hMC4-R [2]) | EC50 (hMC4-R [2]) [nM] | Ki (hMC4-R [3]) [nM] | EC50 (hMC1-R [4]) [nM] | Ki (hMC1-R [5]) [nM] | Ki (hMC4-R [6]; [7]) [nM] | Ki (hMC4-R [6]; read-out: hMC4-R (Ki)) [nM] | also measured
CC(=O)N[C@@H](CCCNC(=N)N)C(=O)N[C@H]1CC(=O)NCCCC[C@@H](C(N)=O)NC(=O)[C@H](Cc2c[nH]c3ccccc23)NC(=O)[C@H](CCCNC(=N)N)NC(=O)[C@@H](Cc2ccccc2)NC(=O)[C@H](C(C)C)NC1=O [Peptide No. 16, Ac-Arg-cyclo(Asp-Val- D-Phe-Arg-Trp-Lys)- NH2] | partial agonist |  |  |  |  |  |  | Ki [1]: 323 nM; food intake and rate of change in body weight (Male Sprague-Dawley rats; rat feeding studies, bremelanotide as positive control): reduce food intake and decrease the rate of change in body weight; decrease in food consumption compared to control (Male Sprague-Dawley rats; 0.3 mg/kg, 0-2 and 0-4 hour periods): statistically significant; decrease in food consumption compared to control (Male Sprague-Dawley rats; 1 mg/kg, 0-2, 0-4 and 0-20 hour periods): statistically significant; Ki (hMC3-R): 1050 nM
CC(=O)N[C@@H](CCCNC(=N)N)C(=O)N[C@H]1CCCC(=O)NCC[C@@H](C(N)=O)NC(=O)[C@H](Cc2c[nH]c3ccccc23)NC(=O)[C@H](CCCNC(=N)N)NC(=O)[C@@H](Cc2ccccc2)NC(=O)[C@H](Cc2c[nH]cn2)NC1=O [compound 126, Ac-Arg-cyclo(hGlu-His- D-Phe-Arg-Trp-Dab)- NH2] | agonist | 0.047 | 1 |  |  |  |  | 
CC(=O)N[C@@H](CCCNC(=N)N)C(=O)N[C@H]1CCCC(=O)NCC[C@@H](C(N)=O)NC(=O)[C@H](Cc2c[nH]c3ccccc23)NC(=O)[C@H](CCCNC(=N)N)NC(=O)[C@@H](Cc2ccccc2)NC(=O)[C@H](CCN)NC1=O [compound 127, Ac-Arg-cyclo(hGlu-Dab- D-Phe-Arg-Trp-Dab)- NH2] | agonist | 0.06 | 2 |  |  |  |  | 
CC(=O)N[C@@H](CCCNC(=N)N)C(=O)N[C@H]1CCNC(=O)CCC[C@@H](C(N)=O)NC(=O)[C@H](Cc2c[nH]c3ccccc23)NC(=O)[C@H](CCCNC(=N)N)NC(=O)[C@@H](Cc2ccccc2)NC(=O)[C@H](CCN)NC1=O [compound 129, Ac-Arg-cyclo(Dab-Dab- D-Phe-Arg-Trp-hGlu)- NH2] | agonist | 0.065 | 4 |  |  |  |  | 
CC(=O)N[C@H](CCCNC(=N)N)C(=O)N[C@H]1CCCNC(=O)CC[C@@H](C(N)=O)NC(=O)[C@H](Cc2c[nH]c3ccccc23)NC(=O)[C@H](CCCNC(=N)N)NC(=O)[C@@H](Cc2ccccc2)NC(=O)[C@H](CC(N)=O)NC1=O [compound 156, Ac-D-Arg-cyclo(Orn- Asn-D-Phe-Arg-Trp- Glu)-NH2] |  |  |  | 80 | 840 |  |  | 
CC(=O)N[C@@H](CCCNC(=N)N)C(=O)N[C@H]1CCNC(=O)CCC[C@@H](C(N)=O)NC(=O)[C@H](Cc2c[nH]c3ccccc23)NC(=O)[C@H](CCCNC(=N)N)NC(=O)[C@@H](Cc2ccccc2)NC(=O)[C@H](CCC(N)=O)NC1=O [compound 159, Ac-Arg-cyclo(Dab-Gln- D-Phe-Arg-Trp-hGlu)- NH2] |  | 0.825 |  | 26 | 133 | 4 | 4 | 
